Structures are written as SMILES.

The target of one assay is T1, TLR7 (Homo sapiens, UniProt Q9NYK1).
T1 construct: Human peripheral blood mononuclear cells (PBMCs) consist of lymphocytes, monocytes and dendritic cells that express TLR7, TLR8 and TLR9; endogenous in cells; host or cells: cryopreserved human PBMCs from healthy donors
T1 sequence (Q9NYK1 27-1049): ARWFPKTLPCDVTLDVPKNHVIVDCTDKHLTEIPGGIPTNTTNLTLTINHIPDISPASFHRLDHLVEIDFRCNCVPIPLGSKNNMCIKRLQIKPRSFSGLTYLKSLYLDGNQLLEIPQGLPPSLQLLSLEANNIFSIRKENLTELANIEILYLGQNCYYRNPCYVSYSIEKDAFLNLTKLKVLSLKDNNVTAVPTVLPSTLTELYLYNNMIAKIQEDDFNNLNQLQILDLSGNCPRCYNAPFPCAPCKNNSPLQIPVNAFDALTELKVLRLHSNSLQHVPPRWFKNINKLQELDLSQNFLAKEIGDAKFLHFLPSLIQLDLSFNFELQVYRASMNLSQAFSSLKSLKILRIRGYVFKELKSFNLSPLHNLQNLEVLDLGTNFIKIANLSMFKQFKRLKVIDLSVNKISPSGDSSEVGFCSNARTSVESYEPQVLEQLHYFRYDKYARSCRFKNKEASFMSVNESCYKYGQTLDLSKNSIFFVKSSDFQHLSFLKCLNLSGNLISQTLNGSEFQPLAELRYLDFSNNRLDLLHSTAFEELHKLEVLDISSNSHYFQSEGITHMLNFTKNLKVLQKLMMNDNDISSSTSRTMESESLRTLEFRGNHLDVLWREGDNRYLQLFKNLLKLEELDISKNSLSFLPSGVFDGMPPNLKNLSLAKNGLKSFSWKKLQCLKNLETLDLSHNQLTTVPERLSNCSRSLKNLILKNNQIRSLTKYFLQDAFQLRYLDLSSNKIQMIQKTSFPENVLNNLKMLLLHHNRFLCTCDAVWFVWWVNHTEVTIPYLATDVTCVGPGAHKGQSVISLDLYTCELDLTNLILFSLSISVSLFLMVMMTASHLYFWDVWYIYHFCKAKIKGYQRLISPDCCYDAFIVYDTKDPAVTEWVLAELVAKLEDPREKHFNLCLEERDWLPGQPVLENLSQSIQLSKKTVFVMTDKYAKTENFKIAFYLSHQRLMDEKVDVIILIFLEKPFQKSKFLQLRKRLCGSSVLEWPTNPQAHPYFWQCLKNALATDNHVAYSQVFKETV
In words: TLR7 human PBMC cell-based assay (antagonist, GS-986 stimulated cytokine release). The settings on record: human PBMCs; TLR7 agonist GS-986 400 nM, 6 hours; cytokines (IL-6 and IFNα) in supernatant; read-out: TLR-7 EC50. The source says:
(§1) Human peripheral blood mononuclear cells (PBMCs) consist of lymphocytes, monocytes and dendritic cells that express TLR7, TLR8 and TLR9. These cells respond to TLR7, TLR8 and TLR9 ligand stimulation and produce cytokines and chemokines in vitro and in vivo. Human PBMCs are therefore suitable to be used in a cell-based assay to assess the in vitro potency of a TLR 7, 8, and/or 9 antagonist. The result is expected to be more translatable to the pharmacodynamics response in vivo than cell line-based assays.
Cryopreserved human PBMCs from healthy donors were thawed and resuspended in RPMI-1640 media with L-glutamine (Corning) supplemented with 10% Fetal Bovine Serum (Hyclone) and 1× Penicillin-Streptomycin (Corning). After counting, the cell density was adjusted to 2 million cells/ml and incubated for 1 hour at 37° C., 5% CO2 for recovery. Following the recovery, the cells were plated by adding 50 μl per well (100,000 cells) to 384-well cell culture plates (Greiner) containing 250 nl of test antagonists in 100% DMSO per well, in a 10 points dose response in quadruplicates. PBMCs were incubated in the presence of test antagonists for one hour at 37° C., 5% CO2 before being stimulated with a TLR7 or TLR9agonist. GS-986 (Gilead Sciences) was used as the TLR7 agonist at a final concentration of 400 nM. ODN-2216 (InvivoGen) was used as the TLR9 agonist at a final concentration of 3 μM. PBMCs were incubated in the presence of the test antagonist and the TLR7 (or TLR9) agonist for an additional 6 hours at 37° C., 5% CO2. At the end of the incubation, the cell culture plates were centrifuged at 500 g for 5 min, and the cell culture supernatant was collected. The level of cytokines (IL-6 and IFNα) in the supernatant was measured by electrochemiluminescence immunoassays (Mesoscale Discovery) following manufacturer's recommended protocols. The level of cytokine measured was plotted against the test antagonist concentration and fitted to a sigmoidal function to determine the EC50, which are shown below in Table 11.

A further assay has as its target T2, TLR8 (Homo sapiens, UniProt Q9NR97).
T2 construct: Human peripheral blood mononuclear cells (PBMCs) consist of lymphocytes, monocytes and dendritic cells that express TLR7, TLR8 and TLR9; endogenous in cells; host or cells: cryopreserved human PBMCs from healthy donors
T2 sequence (Q9NR97 27-1041): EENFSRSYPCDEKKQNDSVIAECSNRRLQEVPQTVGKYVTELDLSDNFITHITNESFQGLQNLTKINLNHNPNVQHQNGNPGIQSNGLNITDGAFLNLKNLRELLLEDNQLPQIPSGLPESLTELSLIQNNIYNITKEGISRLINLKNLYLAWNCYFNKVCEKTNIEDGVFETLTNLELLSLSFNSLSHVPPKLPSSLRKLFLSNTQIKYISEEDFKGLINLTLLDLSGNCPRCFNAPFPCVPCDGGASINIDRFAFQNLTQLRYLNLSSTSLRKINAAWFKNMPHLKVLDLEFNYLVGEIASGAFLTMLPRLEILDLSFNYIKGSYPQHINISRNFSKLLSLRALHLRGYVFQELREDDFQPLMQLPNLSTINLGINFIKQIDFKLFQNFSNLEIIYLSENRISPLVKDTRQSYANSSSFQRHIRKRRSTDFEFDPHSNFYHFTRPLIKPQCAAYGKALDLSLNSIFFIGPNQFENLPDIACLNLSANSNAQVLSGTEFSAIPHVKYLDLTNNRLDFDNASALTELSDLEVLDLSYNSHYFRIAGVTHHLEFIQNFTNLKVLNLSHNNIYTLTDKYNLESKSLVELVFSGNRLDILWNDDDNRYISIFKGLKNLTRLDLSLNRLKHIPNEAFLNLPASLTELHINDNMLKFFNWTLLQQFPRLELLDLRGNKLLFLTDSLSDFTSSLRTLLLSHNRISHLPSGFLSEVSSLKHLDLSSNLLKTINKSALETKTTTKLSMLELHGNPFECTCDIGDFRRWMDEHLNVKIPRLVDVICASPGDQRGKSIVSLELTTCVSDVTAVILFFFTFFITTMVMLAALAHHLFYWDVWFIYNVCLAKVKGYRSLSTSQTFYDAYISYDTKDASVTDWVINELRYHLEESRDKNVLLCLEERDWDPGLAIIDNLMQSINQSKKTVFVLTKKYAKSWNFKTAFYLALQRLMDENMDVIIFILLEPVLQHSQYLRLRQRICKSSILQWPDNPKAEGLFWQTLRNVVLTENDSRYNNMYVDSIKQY
In words: TLR8 human PBMC cell-based assay (antagonist, Compound A stimulated cytokine release). Conditions: human PBMCs; TLR8 agonist Compound A 800 nM, 6 hours; cytokines (TNFa and IL 12p40) in supernatant; read-out: TLR-8 EC50.
Text: as §1
Cryopreserved human PBMCs from healthy donors were thawed and resuspended in RPMI-1640 media with L-glutamine (Corning) supplemented with 10% Fetal Bovine Serum (Hyclone) and 1X Penicillin-Streptomycin (Corning). After counting, the cell density was adjusted to 2 million cells/ml and incubated for 1 hour at 37° C., 5% CO2 for recovery. Following the recovery, the cells were plated by adding 50 μl per well (100,000 cells) to 384-well cell culture plates (Greiner) containing 250 nl of test antagonists in 100% DMSO per well, in a 10 points dose response in quadruplicates. PBMCs were incubated in the presence of antagonists for one hour at 37° C., 5% CO2 before being stimulated with TLR8 agonist. Compound A (Gilead Sciences, U.S. Pat. No. 10,285,990) was used as the TLR8 agonist at a final concentration of 800 nM. PBMCs were incubated in the presence of antagonist and the TLR8 agonist for an additional 6 hours at 37° C., 5% CO2. At the end of the incubation, the cell culture plates were centrifuged at 500 g for 5 min, and the cell culture supernatant was collected. The level of cytokines (TNFa and IL 12p40) in the supernatant was measured by electrochemiluminescence immunoassays (Mesoscale Discovery) following manufacturer's recommended protocols. The level of cytokine measured was plotted against the antagonist concentration and fitted to a sigmoidal function to determine the EC50, which are shown below in Table 11.

As usually defined, the EC50 is the concentration needed to bring the measured effect to its halfway point. `Cc1cc(-c2[nH]c3cc(C(=O)N4CCC[C@H](N)C4)sc3c2C(C)C)cc(C)n1` [Example 11]: the EC50 at TLR7 was determined as 28.7 nM; at TLR8, 105 nM.

As to `Cc1cc(-c2[nH]c3cc(C4CCC5CNCCC5C4)sc3c2C(C)C)cn2ncnc12` (centres unmarked) [Example 281], the EC50 at TLR7 turned out to be 0.87 nM; at TLR8, 4.48 nM.

In the case of `Cc1cc(-c2[nH]c3cc(C(=O)N(C)C4CCC(N5CC(F)C5)CC4)sc3c2C(C)C)cn2ncnc12` (centres unmarked) [Example 250], the EC50 was found to be 6.6 nM on TLR7 and 11 nM on TLR8.

For the compound `Cc1cc(-c2[nH]c3cc(C(=O)N(C)C4CCNCC4)sc3c2C(C)C)cc(C)n1` [Example 10], the EC50 is 18.3 nM at TLR7 and 55.4 nM on TLR8.

As to `Cc1cc(-c2[nH]c3cc(-c4nc5ccc(N6CCNCC6)cc5[nH]4)sc3c2C(C)C)cn2ncnc12` [Example 237], the EC50 at TLR7 is 6.8 nM; at TLR8, 49.4 nM.

On to `Cc1cc(-c2[nH]c3cc(C4CC5CCC4CN5CC(N)=O)sc3c2C(C)C)cn2ncnc12` (centres unmarked) [Example 288], for which the EC50 on TLR7 came to 0.76 nM; at TLR8, 6.45 nM.

As for `Cc1cc(-c2[nH]c3cc(C4CC5CCC(C4)N5)sc3c2C(C)C)cn2ncnc12` (centres unmarked) [Example 156], the EC50 is 0.1 nM on TLR7 and 8.8 nM at TLR8.

Regarding `Cc1cc(-c2[nH]c3cc(C4CC(C)(C)NC(C)(C)C4)sc3c2C(C)C)cn2ncnc12` [Example 294], the half-maximal effective concentration (EC50) was found to be 49.5 nM at TLR7 and 19.5 nM on TLR8.

As to `Cc1cc(-c2[nH]c3cc(C(=O)N4CCC[C@H](N)[C@@H]4C)sc3c2C(C)C)cn2ncnc12` [Example 87], the half-maximal effective concentration (EC50) at TLR7 turned out to be 0.5 nM; at TLR8, 13 nM.

In the case of `Cc1cc(-c2[nH]c3cc(C(=O)N4CCC[C@H]5NCCC[C@H]54)sc3c2C(C)C)cn2ncnc12` [Example 110], the values for the concentration for a half-maximal effect (EC50) on TLR7 and at TLR8 were 0.1 nM and 0.8 nM, respectively.

Consider `Cc1cc(-c2[nH]c3cc(C4CCN(C(=O)CN5CCCC5)CC4)sc3c2C(C)C)cn2ncnc12` [Example 196, 1-(4-(6-isopropyl-5-(8-methyl-[1,2,4]triazolo[1,5-a]pyridin-6-yl)-4H-thieno[3,2-b]pyrrol-2-yl)piperidin-1-yl)-2-(pyrrolidin-1-yl)ethan-1-one], for which the EC50 turned out to be 1.3 nM at TLR7 and 4.2 nM on TLR8.

Turning to `Cc1cc(-c2[nH]c3cc(C4CCC5(CNC5)C4)sc3c2C(C)C)cn2ncnc12` (centres unmarked) [Example 162], the values for the 50% effective concentration (EC50) at TLR7 and at TLR8 were 0.6 nM and 11.2 nM, respectively.

As to `Cc1cc(-c2[nH]c3cc(C4CCC5(C4)CN(CC(N)=O)C5)sc3c2C(C)C)cn2ncnc12` (single isomer, unassigned) [Example 311, 2-(6-(6-Isopropyl-5-(8-methyl-[1,2,4]triazolo[1,5-a]pyridin-6-yl)-4H-thieno[3,2-b]pyrrol-2-yl)-2-azaspiro[3.4]octan-2-yl)acetamide], the EC50 on TLR7 stood at 0.57 nM; at TLR8, 1.82 nM.

For `Cc1cc(-c2[nH]c3cc(-c4cnc5c(c4)CN(CC(N)=O)CC5)sc3c2C(C)C)cn2ncnc12` [Example 173], the EC50 is 8 nM on TLR7 and 4.8 nM on TLR8.

As for `CCc1c(-c2cc(C)c3ncnn3c2)[nH]c2cc(C(=O)N3CCNCC3)sc12` [Example 62, [6-ethyl-5-(8-methyl-[1,2,4]triazolo[1,5-a]pyridin-6-yl)-4H-thieno[3,2-b]pyrrol-2-yl]-piperazin-1-yl-methanone], the half-maximal effective concentration (EC50) at TLR7 was determined as 5.5 nM; on TLR8 it was 5.7 nM.

Consider `Cc1cc(-c2[nH]c3cc(C(=O)N4CCC5(CCN(CC(N)=O)CC5)C4)sc3c2C(C)C)cn2ncnc12` [Example 176], for which the EC50 is 6.5 nM on TLR7 and 22.2 nM on TLR8.

`Cc1cc(-c2[nH]c3cc(-c4cnn(C5CCNC5)c4)sc3c2C(C)C)cn2ncnc12` (centres unmarked) [Example 226]: the figures for the EC50 at TLR7 and at TLR8 were 0.6 nM and 1.6 nM, respectively.

For the compound `Cc1cc(-c2[nH]c3cc(C(=O)N(C)C4CCN(C5COC5)CC4)sc3c2C(C)C)cn2ncnc12` [Example 139], the EC50 on TLR7 amounted to 15 nM; on TLR8, 10.8 nM.

Take `Cc1cc(-c2[nH]c3cc(C4CCC5(CC4)CN(C(=O)[C@H]4CCCN4C)C5)sc3c2C(C)C)cn2ncnc12` [Example 207]: the half-maximal effective concentration (EC50) is 0.7 nM on TLR7 and 19.9 nM at TLR8.

Values taken from patent publication US20240217990A1 (Gilead Sciences, Inc., priority 2021, published 2024).
